Results from ChEMBL document CHEMBL5223162, “Discovery of Pyrazolopyridine Derivatives as HPK1 Inhibitors” (ACS Med Chem Lett, 2023).

Assays:
[1] = biological target: T1, Mitogen-activated protein kinase kinase kinase kinase 1 (Homo sapiens, UniProt Q92918); test: Binding affinity to recombinant human HPK1 (1 to 346 residues) expressed sf9 cells incubated for 1 hr by LanthaScreen assay
[2] = biological target: T1, Mitogen-activated protein kinase kinase kinase kinase 1; test: Inhibition of human HPK1 in human Jurkat cells assessed as reduction in SLP76 phosphorylation incubated for 1 hr by HTRF assay; type: cell-based
[3] = Intrinsic clearance in human liver microsomes at 1 uM and measured upto 30 mins in presence of NADPH by LC-MS analysis; type: ADME, Microsome; conditions: read-out: CLH (converted)
[4] = AUC in cynomolgus monkey at 3 mg/kg, po and measured upto 24 hrs by LC-MS/MS analysis; type: ADME, organism-based, Macaca fascicularis; design: dose 3 mg/kg, time < 24 hrs, route po; conditions: in vivo
[5] = Volume of distribution at steady state in cynomolgus monkey at 1 mg/kg, iv and measured upto 24 hrs by LC-MS/MS analysis; type: ADME, organism-based, Macaca fascicularis; conditions: in vivo
[6] = Half life in cynomolgus monkey at 1 mg/kg, iv and measured upto 24 hrs by LC-MS/MS analysis; type: ADME, organism-based, Macaca fascicularis; conditions: in vivo
[7] = Clearance in cynomolgus monkey at 1 mg/kg, iv and measured upto 24 hrs by LC-MS/MS analysis; type: ADME, organism-based, Macaca fascicularis; conditions: in vivo
[8] = AUC in Sprague-Dawley rat at 3 mg/kg, po and measured upto 24 hrs by LC-MS/MS analysis; type: ADME, organism-based; design: dose 3 mg/kg, time < 24 hrs, route po; conditions: in vivo
[9] = Clearance in Sprague-Dawley rat at 1.5 mg/kg, iv and measured upto 24 hrs by LC-MS/MS analysis; type: ADME, organism-based; conditions: in vivo
[10] = Fraction unbound in human plasma by LC-MS/MS analysis; type: ADME, cell-free
Cytochrome P450 2C19 = Cytochrome P450 2C19 (Homo sapiens, UniProt P33261); test: Time dependent inhibition of CYP2C19 in human liver microsomes using S mephenytoin as substrate by LC-MS analysis; type: ADME, Microsome; conditions: TDE = time-dependent effect
[11] = biological target: Mast/stem cell growth factor receptor Kit (Homo sapiens, UniProt P10721); test: Inhibition of KIT (unknown origin) in presence of ATP
[12] = biological target: T2, Receptor-type tyrosine-protein kinase FLT3 (Homo sapiens, UniProt P36888); test: Inhibition of FLT3 (unknown origin) in presence of ATP
T2 sequence (P36888 whole entry): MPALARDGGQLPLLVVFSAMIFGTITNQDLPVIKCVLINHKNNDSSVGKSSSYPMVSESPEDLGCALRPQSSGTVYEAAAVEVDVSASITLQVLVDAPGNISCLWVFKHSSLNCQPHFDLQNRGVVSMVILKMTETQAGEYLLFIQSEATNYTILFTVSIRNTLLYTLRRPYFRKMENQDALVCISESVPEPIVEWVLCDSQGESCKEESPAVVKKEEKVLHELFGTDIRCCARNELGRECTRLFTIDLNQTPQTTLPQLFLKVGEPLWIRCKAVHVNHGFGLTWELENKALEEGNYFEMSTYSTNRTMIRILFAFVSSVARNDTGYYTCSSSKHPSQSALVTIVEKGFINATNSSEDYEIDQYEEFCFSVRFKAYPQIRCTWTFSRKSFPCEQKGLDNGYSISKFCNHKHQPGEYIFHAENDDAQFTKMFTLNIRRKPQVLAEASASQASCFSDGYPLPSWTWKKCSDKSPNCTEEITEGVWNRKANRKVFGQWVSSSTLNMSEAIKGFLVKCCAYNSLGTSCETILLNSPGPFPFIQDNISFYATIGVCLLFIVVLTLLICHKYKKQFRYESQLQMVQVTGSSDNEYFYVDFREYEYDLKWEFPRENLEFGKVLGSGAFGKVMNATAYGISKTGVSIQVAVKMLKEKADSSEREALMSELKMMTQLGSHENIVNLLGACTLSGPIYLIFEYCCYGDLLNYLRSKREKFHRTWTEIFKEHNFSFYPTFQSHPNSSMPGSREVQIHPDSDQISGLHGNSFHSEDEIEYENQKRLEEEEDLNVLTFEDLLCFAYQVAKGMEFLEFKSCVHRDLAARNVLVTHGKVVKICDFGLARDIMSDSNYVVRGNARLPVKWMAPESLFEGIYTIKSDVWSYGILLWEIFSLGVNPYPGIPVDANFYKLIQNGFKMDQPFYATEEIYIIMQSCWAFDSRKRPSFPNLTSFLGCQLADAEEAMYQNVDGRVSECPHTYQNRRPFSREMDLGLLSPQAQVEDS

Cytochrome P450 3A4 [13] = biological target: T3, Cytochrome P450 3A4 (Homo sapiens, UniProt P08684); test: Inhibition of CYP3A4 in human liver microsomes using midazolam as substrate by LC-MS analysis; type: ADME, Microsome
[14] = Permeability across apical to basolateral side in human Caco2 cells at 50 uM and measured after 120 mins by LC-MS analysis; type: ADME, cell-based; conditions: Caco-2, read-out: permeability
[15] = Oral bioavailability in cynomolgus monkey at 3 mg/kg and measured upto 24 hrs by LC-MS/MS analysis; type: ADME, organism-based, Macaca fascicularis; conditions: in vivo
Cytochrome P450 3A4 [16] = biological target: T3, Cytochrome P450 3A4; test: Inhibition of CYP3A4 in human liver microsomes using testosterone as substrate by LC-MS analysis; type: ADME, Microsome

T1 sequence (Q92918 whole entry, the tested form may be a part): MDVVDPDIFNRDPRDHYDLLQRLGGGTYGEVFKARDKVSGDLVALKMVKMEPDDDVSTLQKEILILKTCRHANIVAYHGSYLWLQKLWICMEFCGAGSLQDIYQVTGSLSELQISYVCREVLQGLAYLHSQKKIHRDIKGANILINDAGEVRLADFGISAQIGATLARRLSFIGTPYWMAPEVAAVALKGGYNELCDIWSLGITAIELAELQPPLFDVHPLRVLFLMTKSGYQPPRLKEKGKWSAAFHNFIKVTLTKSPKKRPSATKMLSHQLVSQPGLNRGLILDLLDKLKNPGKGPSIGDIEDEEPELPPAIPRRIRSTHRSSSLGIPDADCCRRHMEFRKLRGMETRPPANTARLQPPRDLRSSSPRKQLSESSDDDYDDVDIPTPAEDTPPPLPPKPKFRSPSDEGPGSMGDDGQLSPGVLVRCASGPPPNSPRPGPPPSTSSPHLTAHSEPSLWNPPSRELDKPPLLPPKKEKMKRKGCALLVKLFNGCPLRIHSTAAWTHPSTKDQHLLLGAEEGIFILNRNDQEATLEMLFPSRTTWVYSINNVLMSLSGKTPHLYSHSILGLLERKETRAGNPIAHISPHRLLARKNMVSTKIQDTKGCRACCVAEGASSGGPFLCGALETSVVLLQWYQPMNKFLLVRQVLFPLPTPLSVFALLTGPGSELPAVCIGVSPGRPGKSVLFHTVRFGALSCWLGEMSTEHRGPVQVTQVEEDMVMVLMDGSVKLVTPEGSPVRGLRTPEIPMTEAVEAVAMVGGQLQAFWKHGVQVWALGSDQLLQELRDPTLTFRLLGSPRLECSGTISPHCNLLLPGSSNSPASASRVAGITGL
T3 sequence (P08684 whole entry): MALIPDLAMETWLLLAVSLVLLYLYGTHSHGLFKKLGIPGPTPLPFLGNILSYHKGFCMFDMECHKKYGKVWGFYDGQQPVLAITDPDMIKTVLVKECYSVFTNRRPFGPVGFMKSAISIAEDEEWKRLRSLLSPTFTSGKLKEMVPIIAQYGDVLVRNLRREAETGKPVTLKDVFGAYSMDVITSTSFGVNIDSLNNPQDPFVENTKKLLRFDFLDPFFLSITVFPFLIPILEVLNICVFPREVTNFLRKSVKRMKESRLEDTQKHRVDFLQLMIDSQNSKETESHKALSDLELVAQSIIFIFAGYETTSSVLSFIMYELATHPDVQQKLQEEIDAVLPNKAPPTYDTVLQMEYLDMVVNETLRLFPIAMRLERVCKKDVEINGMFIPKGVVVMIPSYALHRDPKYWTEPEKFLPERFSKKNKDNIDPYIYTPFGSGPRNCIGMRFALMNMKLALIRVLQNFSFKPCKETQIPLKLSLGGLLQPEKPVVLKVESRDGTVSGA
Mast/stem cell growth factor receptor Kit, sequence (P10721 whole entry): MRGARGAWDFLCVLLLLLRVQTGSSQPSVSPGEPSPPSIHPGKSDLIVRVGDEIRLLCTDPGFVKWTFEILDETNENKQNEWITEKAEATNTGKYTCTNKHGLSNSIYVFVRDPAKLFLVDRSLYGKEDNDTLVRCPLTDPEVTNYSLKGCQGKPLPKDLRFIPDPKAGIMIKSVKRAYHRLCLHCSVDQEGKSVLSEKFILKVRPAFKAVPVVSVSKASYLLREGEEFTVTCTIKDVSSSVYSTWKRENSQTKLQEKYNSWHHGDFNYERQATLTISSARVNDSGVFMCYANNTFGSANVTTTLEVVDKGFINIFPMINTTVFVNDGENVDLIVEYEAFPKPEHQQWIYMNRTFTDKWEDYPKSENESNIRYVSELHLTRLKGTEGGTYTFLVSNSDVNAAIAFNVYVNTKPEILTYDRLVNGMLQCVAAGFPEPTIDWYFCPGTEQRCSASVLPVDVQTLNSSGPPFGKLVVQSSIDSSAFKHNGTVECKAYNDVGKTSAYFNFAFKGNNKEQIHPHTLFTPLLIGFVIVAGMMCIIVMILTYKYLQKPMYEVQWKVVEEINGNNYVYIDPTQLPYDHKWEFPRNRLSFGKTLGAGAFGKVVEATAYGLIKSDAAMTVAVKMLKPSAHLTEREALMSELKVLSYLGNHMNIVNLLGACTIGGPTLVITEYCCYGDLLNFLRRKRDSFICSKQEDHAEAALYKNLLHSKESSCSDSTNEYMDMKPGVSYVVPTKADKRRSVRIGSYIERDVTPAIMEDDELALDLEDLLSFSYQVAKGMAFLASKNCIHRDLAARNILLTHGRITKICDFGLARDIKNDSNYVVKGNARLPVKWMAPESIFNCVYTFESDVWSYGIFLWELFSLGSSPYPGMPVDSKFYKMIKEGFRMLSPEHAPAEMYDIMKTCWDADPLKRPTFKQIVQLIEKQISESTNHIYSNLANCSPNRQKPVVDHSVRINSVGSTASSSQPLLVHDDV
Cytochrome P450 2C19, sequence (P33261 whole entry): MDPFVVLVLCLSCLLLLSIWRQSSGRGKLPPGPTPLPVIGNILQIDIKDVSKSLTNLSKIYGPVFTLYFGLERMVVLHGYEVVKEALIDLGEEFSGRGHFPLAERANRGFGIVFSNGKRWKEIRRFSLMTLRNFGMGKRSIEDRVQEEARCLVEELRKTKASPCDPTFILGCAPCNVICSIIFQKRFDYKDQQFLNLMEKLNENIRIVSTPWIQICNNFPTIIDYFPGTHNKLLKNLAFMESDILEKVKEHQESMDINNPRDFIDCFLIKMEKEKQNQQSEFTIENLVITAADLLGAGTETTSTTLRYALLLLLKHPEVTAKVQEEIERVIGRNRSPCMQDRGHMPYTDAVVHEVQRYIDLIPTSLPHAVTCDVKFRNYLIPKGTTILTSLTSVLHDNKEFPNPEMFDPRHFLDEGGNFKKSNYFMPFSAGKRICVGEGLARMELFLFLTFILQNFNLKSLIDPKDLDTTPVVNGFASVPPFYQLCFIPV

Compound	Ki [1]	IC50 [2]	CLint scaled at 1 µM [3]	Papp A→B at 2 h, 50 µM [14]	also measured
COc1cc(OC)c(F)c(-c2ncc3c(-c4ccc(N5CCN(C)CC5)cc4)n[nH]c3n2)c1F	91 nM				
CN1CCN(c2ccc(-c3n[nH]c4cc(-c5ccccc5)cnc34)cc2)CC1	1150 nM				
CN1CCN(c2ccc(-c3n[nH]c4ccc(-c5ccccc5F)nc34)cc2)CC1	28 nM	2740 nM			
CCNCc1cc(C)c(-c2cc3c(-c4cnn(C)c4)n[nH]c3cn2)c(F)c1	5 nM	137 nM	< 8.33 mL/min/kg	1.4 ×10⁻⁶ cm/s	AUC at 24 h [4]: 1.64 µM·h; Vdss [5]: 3.9 L/kg; half-life [6]: 6.3 h; clearance [7]: 11 mL/min/kg; AUC at 24 h [8]: 0.761 µM·h; clearance [9]: 102 mL/min/kg; fraction unbound [10]: 0.61; bioavailability [15]: 16%
CN1CCN(c2ccc(Nc3ncc4ccc(-c5ccccc5)cc4n3)cc2)CC1	492 nM				
CN1CCN(c2ccc(-c3n[nH]c4ccc(-c5ccccc5)nc34)cc2)CC1	223 nM				
CNCc1cc(F)c(-c2cc3c(-c4cnn(C)c4)n[nH]c3cn2)c(F)c1	5.4 nM	117 nM	< 8.33 mL/min/kg	0.7 ×10⁻⁶ cm/s	IC50 [11]: 1080 nM; IC50 [12]: 366 nM; IC50 (Cytochrome P450 3A4 [13]): > 25000 nM; IC50 (Cytochrome P450 3A4 [16]): > 25000 nM
COc1cccc(F)c1-c1ncc2[nH]nc(-c3cnn(C)c3)c2n1	12 nM	640 nM	11.7 mL/min/kg		

The next molecules have a lower Ki [1] than those just listed; values first:

Ki [1]	IC50 [2]	CLint scaled at 1 µM [3]	Papp A→B at 2 h, 50 µM [14]	Compound	also measured
3 nM	395 nM	> 18.3 mL/min/kg		COc1cccc(F)c1-c1ccc2[nH]nc(-c3ccc(N4CCN(C)CC4)cc3)c2n1	
2 nM	148 nM	13.3 mL/min/kg		COc1cccc(F)c1-c1cc2c(-c3cnn(C)c3)n[nH]c2cn1	
2.7 nM	91 nM	< 8.33 mL/min/kg	1.1 ×10⁻⁶ cm/s	CNCc1cc(C)c(-c2cc3c(-c4cnn(C)c4)n[nH]c3cn2)c(F)c1	AUC at 24 h [4]: 0.759 µM·h; Vdss [5]: 4.6 L/kg; half-life [6]: 5.5 h; clearance [7]: 20 mL/min/kg; AUC at 24 h [8]: 0.456 µM·h; clearance [9]: 118 mL/min/kg; fraction unbound [10]: 0.41; inhibition (INH) (Cytochrome P450 2C19): Tde; IC50 [11]: 7470 nM; IC50 [12]: 1510 nM; IC50 (Cytochrome P450 3A4 [13]): > 25000 nM; bioavailability [15]: 7%; IC50 (Cytochrome P450 3A4 [16]): > 25000 nM
3 nM	219 nM	< 8.33 mL/min/kg	0.2 ×10⁻⁶ cm/s	CNCc1cc(F)c(-c2cc3c(-c4cnn(C)c4)n[nH]c3cn2)c(OC)c1	IC50 [11]: 857 nM; IC50 [12]: 260 nM
4.6 nM	138 nM	< 8.33 mL/min/kg	0.4 ×10⁻⁶ cm/s	Cc1cc(C2CCCCN2)cc(F)c1-c1cc2c(-c3cnn(C)c3)n[nH]c2cn1 (configuration not stated)	AUC at 24 h [4]: 7.84 µM·h; Vdss [5]: 4.6 L/kg; half-life [6]: 8.9 h; clearance [7]: 9 mL/min/kg; AUC at 24 h [8]: 1.46 µM·h; clearance [9]: 80 mL/min/kg; fraction unbound [10]: 0.5; bioavailability [15]: 55%
2.5 nM	258 nM	> 18.3 mL/min/kg		COc1cccc(F)c1-c1ncc2[nH]nc(-c3ccc(N4CCN(C)CC4)cc3)c2n1	
4 nM	94 nM	< 8.33 mL/min/kg	0.2 ×10⁻⁶ cm/s	CNC(C)c1cc(C)c(-c2cc3c(-c4cnn(C)c4)n[nH]c3cn2)c(F)c1 (configuration not stated)	AUC at 24 h [4]: 3.93 µM·h; Vdss [5]: 7.6 L/kg; half-life [6]: 8.6 h; clearance [7]: 18.3 mL/min/kg; AUC at 24 h [8]: 0.799 µM·h; clearance [9]: 93.3 mL/min/kg; fraction unbound [10]: 0.49; bioavailability [15]: 50%
< 1 nM	144 nM	18.3 mL/min/kg		COc1cccc(F)c1-c1cc2c(-c3ccc(N4CCN(C)CC4)cc3)n[nH]c2cn1	
3.5 nM	128 nM	< 8.33 mL/min/kg	1.6 ×10⁻⁶ cm/s	CNCc1cc(F)c(-c2cc3c(-c4cnn(C)c4)n[nH]c3cn2)c(C(F)(F)F)c1	inhibition (INH) (Cytochrome P450 2C19): Tde; IC50 [11]: 1980 nM; IC50 [12]: 2230 nM; IC50 (Cytochrome P450 3A4 [13]): > 25000 nM; IC50 (Cytochrome P450 3A4 [16]): > 25000 nM
